Experimental data reported in US6706663B2, “Herbicidal 3-heterocyclic substituted benzisothiazole and benzisoxazole compounds” (Wyeth, priority 2000, dated 2004).

Assays:
[1] = test system: IPOHE (Ipomoea hederacea); test: Postemergence herbicidal evaluation; assay type: in vivo, (L.) Jacq.
Procedure, shortened: (§1)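 Seedlings grown about two weeks in flats, sprayed, then kept under standard greenhouse care. Rated visually 4–5 weeks after treatment on a 0–9 scale (stand, vigour, malformation, size, chlorosis, overall appearance) relative to untreated control; repeat tests averaged.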

[2] = test system: ECHCG (Echinochloa crus-galli); test: Postemergence herbicidal evaluation; assay type: in vivo, (L.) Beau
Procedure, shortened: as §1

[3] = test system: SETVI (Setaria viridis); test: Postemergence herbicidal evaluation; assay type: in vivo, (L.) Beau
Procedure, shortened: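 First, seedlings are raised in flats for about two weeks. Next, compound dispersed in 50/50 acetone/water with 0.5% TWEEN 20 is sprayed at 40 psi to deliver about 0.0040–1.000 kg/ha. Plants are then maintained in the greenhouse and rated 0-9 after four to five weeks.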

[4] = test system: GLXMAW (Soybean, Williams); test: Postemergence herbicidal evaluation; assay type: in vivo, Glycine max, (L.) Merr. cv Williams
Procedure, shortened: as §1

[5] = test system: ORYSAT (Rice, Tebonnet); test: Postemergence herbicidal evaluation; assay type: in vivo, Oryza sativa, (L.) Tebonnet
Procedure, shortened: as §1

[6] = test system: TRZAWR (Wheat, Winter, cv Riband); test: Postemergence herbicidal evaluation; assay type: in vivo, Triticum aestivum
Procedure, shortened: as §1

[7] = test system: ZEAMX (Corn, Field); test: Postemergence herbicidal evaluation; assay type: in vivo, Zea mays, L.
Procedure, shortened: as §1

[8] = test system: ABUTH (Abutilon theophrasti); test: Preemergence herbicidal evaluation; assay type: in vivo, Medic.; details: preemergence, rated 4-5 weeks after treatment
[9] = test system: AMBEL (Ambrosia artemisifolia); test: Preemergence herbicidal evaluation; assay type: in vivo, L.; details: preemergence, rated 4-5 weeks after treatment
Procedure, shortened: (§2)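 Scores (0–9) reflect visual comparison with control plants for stand, vigor, malformation, size and chlorosis. Seeds in potting soil received a post-planting spray of compound in aqueous acetone and grew in a greenhouse until assessment 4–5 weeks later.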

[10] = test system: CASOB (Cassia obtusifolia); test: Preemergence herbicidal evaluation; assay type: in vivo, L.; details: preemergence, rated 4-5 weeks after treatment
Procedure, shortened: as §2

[11] = test system: CHEAL (Chenopodium album); test: Preemergence herbicidal evaluation; assay type: in vivo, L.; details: preemergence, rated 4-5 weeks after treatment
Procedure, shortened: as §2

[12] = test system: GALAP (Galium aparine); test: Preemergence herbicidal evaluation; assay type: in vivo; details: preemergence, rated 4-5 weeks after treatment
Procedure, shortened: as §2

[13] = test system: ECHCG (Echinochloa crus-galli); test: Preemergence herbicidal evaluation; assay type: in vivo, (L.) Beau; details: preemergence, rated 4-5 weeks after treatment
Procedure, shortened: as §2

[14] = test system: SETVI (Setaria viridis); test: Preemergence herbicidal evaluation; assay type: in vivo, (L.) Beau; details: preemergence, rated 4-5 weeks after treatment
Procedure, shortened: as §2

[15] = test system: ORYSAT (Rice, Tebonnet); test: Preemergence herbicidal evaluation; assay type: in vivo, Oryza sativa, (L.) Tebonnet; details: preemergence, rated 4-5 weeks after treatment
[16] = test system: TRZAWR (Wheat, Winter, cv Riband); test: Preemergence herbicidal evaluation; assay type: in vivo, Triticum aestivum; details: preemergence, rated 4-5 weeks after treatment
Procedure, shortened: as §2

[17] = test system: ECHORC (Echinochloa oryzoides); test: Flooded paddy, preemergence weed control; assay type: in vivo, Echinochloa oryzoides (Ard.) Fritsch.; details: rated 3-4 weeks after treatment, 0-9 rating scale
Procedure, shortened: (§3)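 Ratings of 0-9 reflect visual comparison with a control for stand, vigor, deformity, size, chlorosis and overall look. Propagules were placed in shallow silt loam (top 0.5 cm) under a continuous 1.5–3 cm flood and grown in the greenhouse.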

[18] = test system: CYPSE (Cyperus serotinus); test: Flooded paddy, preemergence weed control; assay type: in vivo, Rottb.; details: rated 3-4 weeks after treatment, 0-9 rating scale
Procedure, shortened: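 Seeds or propagules were planted 0.5 cm deep in silt loam and flooded to 1.5–3 cm. Compounds in 50/50 v/v aqueous/acetone were pipetted into the flood water at about 0.0080 to 0.1250 kg/ha. After 3–4 weeks in the greenhouse, effect was rated visually on a 0–9 scale versus untreated control.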

[19] = test system: MOOVA (Monochoria vaginalis); test: Flooded paddy, preemergence weed control; assay type: in vivo, Presl.; details: rated 3-4 weeks after treatment, 0-9 rating scale
Procedure, shortened: as §3

COC(=O)C(C)Oc1ccsc1-c1nsc2ccc(-n3c(=O)cc(C(F)(F)F)n(C)c3=O)cc12 (stereo not drawn) [Compound 23, methyl 2-[(2-[5-[3,6-dihydro-3-methyl-2,6-dioxo-4-(trifluoromethyl)-1(2H)-pyrimidinyl]-1,2-benzisothiazol-3-yl]-3-thienyl]oxy]propionate]
Postemergence herbicidal rating, IPOHE ([1]; rate 0.0320 kg/ha): 6.0
Postemergence herbicidal rating, IPOHE ([1]; rate 0.0620 kg/ha): 5.0
Postemergence herbicidal rating, IPOHE ([1]; rate 0.1250 kg/ha): 9.0
Postemergence herbicidal rating, ECHCG ([2]; rate 0.0320 kg/ha): 0.0
Postemergence herbicidal rating, ECHCG ([2]; rate 0.0620 kg/ha): 1.0
Postemergence herbicidal rating, ECHCG ([2]; rate 0.1250 kg/ha): 5.0
Postemergence herbicidal rating, SETVI ([3]; rate 0.0320 kg/ha): 1.0
Postemergence herbicidal rating, SETVI ([3]; rate 0.0620 kg/ha): 1.0
Postemergence herbicidal rating, SETVI ([3]; rate 0.1250 kg/ha): 7.0
Postemergence herbicidal rating, GLXMAW ([4]; rate 0.0320 kg/ha): 4.0
Postemergence herbicidal rating, GLXMAW ([4]; rate 0.0620 kg/ha): 5.0
Postemergence herbicidal rating, GLXMAW ([4]; rate 0.1250 kg/ha): 5.0
Postemergence herbicidal rating, ORYSAT ([5]; rate 0.0320 kg/ha): 2.5
Postemergence herbicidal rating, ORYSAT ([5]; rate 0.0620 kg/ha): 3.5
Postemergence herbicidal rating, ORYSAT ([5]; rate 0.1250 kg/ha): 5.0
Postemergence herbicidal rating, TRZAWR ([6]; rate 0.0320 kg/ha): 2.5
Postemergence herbicidal rating, TRZAWR ([6]; rate 0.0620 kg/ha): 3.5
Postemergence herbicidal rating, TRZAWR ([6]; rate 0.1250 kg/ha): 5.0
Postemergence herbicidal rating, ZEAMX ([7]; rate 0.0320 kg/ha): 5.0
Postemergence herbicidal rating, ZEAMX ([7]; rate 0.0620 kg/ha): 6.5
Postemergence herbicidal rating, ZEAMX ([7]; rate 0.1250 kg/ha): 7.0
ABUTH preemergence herbicidal rating ([8]; Rate 0.0620 kg/ha): 0.0
ABUTH preemergence herbicidal rating ([8]; Rate 0.1250 kg/ha): 0.0
ABUTH preemergence herbicidal rating ([8]; Rate 0.2500 kg/ha): 1.0
AMBEL preemergence herbicidal rating ([9]; Rate 0.0620 kg/ha): 0.0
AMBEL preemergence herbicidal rating ([9]; Rate 0.1250 kg/ha): 9.0
AMBEL preemergence herbicidal rating ([9]; Rate 0.2500 kg/ha): 9.0
CASOB preemergence herbicidal rating ([10]; Rate 0.0620 kg/ha): 0.0
CASOB preemergence herbicidal rating ([10]; Rate 0.1250 kg/ha): 1.0
CASOB preemergence herbicidal rating ([10]; Rate 0.2500 kg/ha): 6.0
CHEAL preemergence herbicidal rating ([11]; Rate 0.0620 kg/ha): 9.0
CHEAL preemergence herbicidal rating ([11]; Rate 0.1250 kg/ha): 0.0
CHEAL preemergence herbicidal rating ([11]; Rate 0.2500 kg/ha): 4.0
GALAP preemergence herbicidal rating ([12]; Rate 0.0620 kg/ha): 0.0
GALAP preemergence herbicidal rating ([12]; Rate 0.1250 kg/ha): 0.0
GALAP preemergence herbicidal rating ([12]; Rate 0.2500 kg/ha): 1.0
ECHCG preemergence herbicidal rating ([13]; Rate 0.0620 kg/ha): 0.0
ECHCG preemergence herbicidal rating ([13]; Rate 0.1250 kg/ha): 0.0
ECHCG preemergence herbicidal rating ([13]; Rate 0.2500 kg/ha): 1.0
SETVI preemergence herbicidal rating ([14]; Rate 0.0620 kg/ha): 0.0
SETVI preemergence herbicidal rating ([14]; Rate 0.1250 kg/ha): 0.0
SETVI preemergence herbicidal rating ([14]; Rate 0.2500 kg/ha): 1.0
ORYSAT preemergence herbicidal rating ([15]; Rate 0.0620 kg/ha): 0.0
ORYSAT preemergence herbicidal rating ([15]; Rate 0.1250 kg/ha): 0.0
ORYSAT preemergence herbicidal rating ([15]; Rate 0.2500 kg/ha): 0.0
TRZAWR preemergence herbicidal rating ([16]; Rate 0.0620 kg/ha): 0.0
TRZAWR preemergence herbicidal rating ([16]; Rate 0.1250 kg/ha): 0.0
TRZAWR preemergence herbicidal rating ([16]; Rate 0.2500 kg/ha): 0.0
herbicidal rating, ECHORC ([17]; rate 0.0320 kg/ha): 0.0
herbicidal rating, ECHORC ([17]; rate 0.1250 kg/ha): 3.0
herbicidal rating, CYPSE ([18]; rate 0.0320 kg/ha): 0.0
herbicidal rating, CYPSE ([18]; rate 0.1250 kg/ha): 9.0
herbicidal rating, MOOVA ([19]; rate 0.0320 kg/ha): 9.0
herbicidal rating, MOOVA ([19]; rate 0.1250 kg/ha): 9.0

Cn1c(C(F)(F)F)cc(=O)n(-c2ccc3snc(C4SCCS4)c3c2)c1=O [Compound 24, 3-[3-(1,3-dithiolan-2-yl)-1,2-benzisothiazol-5-yl]-1-methyl-6-(trifluoromethyl)uracil]
Postemergence herbicidal rating, IPOHE ([1]; rate 0.0320 kg/ha): 9.0
Postemergence herbicidal rating, IPOHE ([1]; rate 0.0620 kg/ha): 9.0
Postemergence herbicidal rating, ECHCG ([2]; rate 0.0320 kg/ha): 0.0
Postemergence herbicidal rating, ECHCG ([2]; rate 0.0620 kg/ha): 2.0
Postemergence herbicidal rating, SETVI ([3]; rate 0.0320 kg/ha): 0.0
Postemergence herbicidal rating, SETVI ([3]; rate 0.0620 kg/ha): 3.0
Postemergence herbicidal rating, GLXMAW ([4]; rate 0.0320 kg/ha): 8.0
Postemergence herbicidal rating, GLXMAW ([4]; rate 0.0620 kg/ha): 8.5
Postemergence herbicidal rating, ORYSAT ([5]; rate 0.0320 kg/ha): 2.0
Postemergence herbicidal rating, ORYSAT ([5]; rate 0.0620 kg/ha): 2.5
Postemergence herbicidal rating, TRZAWR ([6]; rate 0.0320 kg/ha): 4.0
Postemergence herbicidal rating, TRZAWR ([6]; rate 0.0620 kg/ha): 4.0
Postemergence herbicidal rating, ZEAMX ([7]; rate 0.0320 kg/ha): 5.5
Postemergence herbicidal rating, ZEAMX ([7]; rate 0.0620 kg/ha): 6.0
ABUTH preemergence herbicidal rating ([8]; Rate 0.0620 kg/ha): 3.5
ABUTH preemergence herbicidal rating ([8]; Rate 0.1250 kg/ha): 7.0
ABUTH preemergence herbicidal rating ([8]; Rate 0.2500 kg/ha): 9.0
AMBEL preemergence herbicidal rating ([9]; Rate 0.0620 kg/ha): 4.5
AMBEL preemergence herbicidal rating ([9]; Rate 0.1250 kg/ha): 8.0
AMBEL preemergence herbicidal rating ([9]; Rate 0.2500 kg/ha): 9.0
CASOB preemergence herbicidal rating ([10]; Rate 0.0620 kg/ha): 0.0
CASOB preemergence herbicidal rating ([10]; Rate 0.1250 kg/ha): 0.0
CASOB preemergence herbicidal rating ([10]; Rate 0.2500 kg/ha): 3.0
CHEAL preemergence herbicidal rating ([11]; Rate 0.0620 kg/ha): 7.5
CHEAL preemergence herbicidal rating ([11]; Rate 0.1250 kg/ha): 9.0
CHEAL preemergence herbicidal rating ([11]; Rate 0.2500 kg/ha): 9.0
GALAP preemergence herbicidal rating ([12]; Rate 0.0620 kg/ha): 5.0
GALAP preemergence herbicidal rating ([12]; Rate 0.1250 kg/ha): 5.0
ECHCG preemergence herbicidal rating ([13]; Rate 0.0620 kg/ha): 0.0
ECHCG preemergence herbicidal rating ([13]; Rate 0.1250 kg/ha): 1.5
ECHCG preemergence herbicidal rating ([13]; Rate 0.2500 kg/ha): 5.0
SETVI preemergence herbicidal rating ([14]; Rate 0.0620 kg/ha): 3.5
SETVI preemergence herbicidal rating ([14]; Rate 0.1250 kg/ha): 8.0
SETVI preemergence herbicidal rating ([14]; Rate 0.2500 kg/ha): 9.0
ORYSAT preemergence herbicidal rating ([15]; Rate 0.0620 kg/ha): 0.0
ORYSAT preemergence herbicidal rating ([15]; Rate 0.1250 kg/ha): 3.0
ORYSAT preemergence herbicidal rating ([15]; Rate 0.2500 kg/ha): 6.0
TRZAWR preemergence herbicidal rating ([16]; Rate 0.0620 kg/ha): 0.0
TRZAWR preemergence herbicidal rating ([16]; Rate 0.1250 kg/ha): 2.0
herbicidal rating, ECHORC ([17]; rate 0.0320 kg/ha): 5.0
herbicidal rating, ECHORC ([17]; rate 0.1250 kg/ha): 7.0
herbicidal rating, CYPSE ([18]; rate 0.0320 kg/ha): 0.0
herbicidal rating, CYPSE ([18]; rate 0.1250 kg/ha): 2.0
herbicidal rating, MOOVA ([19]; rate 0.0320 kg/ha): 5.0
herbicidal rating, MOOVA ([19]; rate 0.1250 kg/ha): 8.0
